Starred links: 1 amine or outer side, 2 acyl side, 3 side chain; linkers in the order of their positions; H or OH if unused. Non-standard residues stand in square brackets, D forms with d. Residues, ends and D or L forms follow the SMILES beside them. *: point of attachment. Hyp = O=C(O)[C@@H]1C[C@@H](O)CN1; βNA = c1ccc2cc(N*)ccc2c1; 2Abz = Nc1ccccc1C(=O)O; CO = O=C([*:1])[*:2]; Bn = c1ccc(C*)cc1
melting point [°C]	Compound
79 to 81	CCC(=O)c1cc2ccccc2s1
80 to 82	CCN(C(=O)N1CCN(c2cc(C)cc(C)c2)CC1)c1cc(C)c(C)cc1OC
161	CC(C)N(C(=O)c1cc2ccccc2c(-c2ccccc2Cl)n1)C(C)C
265 to 267	COc1cc2c(cc1OC)C(c1ccccc1)N1C(=O)CNC(=O)C1C2 (configuration not stated)
144 to 146	CC(O)c1ccc(Cl)c(S(N)(=O)=O)c1 (configuration not stated)
85 to 88	O=c1c(-c2ccccc2)nc2ccccc2n1CC(F)F
92 to 93	CC(=O)OC1C(N2CCCC2=O)c2sccc2OC1(C)C (configuration not stated)
122 to 123	COc1ccc(-n2cc(-c3cccc(C(=O)O)n3)cn2)cc1
97 to 100	Cc1cccc(-c2[nH]c(C(C)C)nc2-c2cccc(-c3cccc(S(C)(=O)=O)c3)c2)n1
64 to 65	CSC(=O)c1ccccc1NC1CCN(C)CC1
264 to 267	Cn1nnnc1-c1cn(C)c2cc(Cl)c(F)cc2c1=O
98 to 99	O=C1Nc2ccccc2SC1CCCCl (configuration not stated)
186 to 188	C=C1N(c2ccc(Cl)cc2)C(=O)OC12CCN(CCC=C(c1ccc(F)cc1)c1ccc(F)cc1)CC2
284 to 285	CNC(=O)c1cc2c(nc(C)n2C)c(O)c1CCC(=O)c1ccccc1
88	N#Cc1ccc(C=S)c(-c2ccccc2)c1
146 to 147	Cc1oc(-c2ccco2)nc1COc1ccc(C=O)cc1Br
178 to 179	CCC(Oc1ccc(C(C)(C)CC)cc1C(C)(C)CC)C(=O)Nc1ccc(Cl)c(NC(=O)C(C(=O)C(C)(C)C)N2C(=O)NC(=C(C)C)C2=O)c1 (configuration not stated)
234 to 235	Cc1cc(-c2nc3cccnn3c2-c2ccnc(NC(=O)Nc3ccsc3)c2)ccc1F
228 to 230	NS(=O)(=O)c1ccc(-c2[nH]c3ccccc3c2-c2ccc(F)cc2)cc1
156	O=C(O)c1ccccc1NC(=O)[C@@H]1CCCN1C(=O)[C@@H]1C[C@@H](OCc2ccccc2)CN1C(=O)Nc1ccc2ccccc2c1 ({βNA-CO}-[Hyp](Bn)-Pro-[2Abz]-OH)
258	CC(=O)Nc1ccc(Nc2c(NCc3ccco3)cc(C(=O)O)cc2S(=O)(=O)Nc2ccccc2NC(C)=O)cc1
74 to 76	Nc1c(Cl)cc(C(O)CNCCCCCCOCCCCc2ccccc2)cc1Cl (configuration not stated)
214 to 217	COC(=O)C(NS(=O)(=O)Cc1c(Cl)c(C)cc2nc(OC)c(OC)nc12)c1ccccc1 (configuration not stated)

melting point [°C]	Compound
127 to 128	O=C1CCC(NC(=O)OC(=O)c2ccccc2)(C(=O)OCc2ccc([N+](=O)[O-])cc2)O1 (configuration not stated)
190 to 195	Cc1noc(NS(=O)(=O)c2ccc(NC(=O)NC3CCCCC3)cc2)c1C
78 to 79.5	c1ccc(CN2CC3OC(C4OCCO4)(C2)c2ccccc23)cc1 (configuration not stated)
105 to 106	Cc1oc(-c2ccccc2)nc1COc1cc(CCl)on1
88 to 89	OC1CCN(CCCc2noc3cc(F)ccc23)CC1
78 to 79	COc1ccc(SC2CC(=O)N2CC(=O)O)cc1 (configuration not stated)
262 to 264	CC(C)(C)n1ncc(C(=O)c2ccc(S(C)(=O)=O)c(-c3ccccc3)c2Cl)c1O
197 to 199	O=C(O)CCCCNCc1cc2cc3c(cc2c2cc(OCc4ccccc4)ccc12)OCO3
244 to 245	NC(=O)c1cccc(C(=O)Nc2ccc(-n3nc(C(F)(F)F)cc3C(F)(F)F)cc2)c1
99	Cc1cc(O)c(CC(=O)OCCC(C)C)cc1O
195 to 196	O=C1NCc2c1cccc2-c1cccc2cc(Cc3cccc(C(F)(F)F)c3)sc12
245 to 246	Cc1cccc(C)c1CNc1cc(CO)cc2c1nc(C)n2C
91 to 93	COc1cc(N(C)C)cc(CN(C)CCc2ccc(N=C(N)c3cccs3)cc2)c1O
293 to 294	COc1ccc(-c2c(NC(=O)c3cc(C(C)(C)C)c(O)c(C(C)(C)C)c3)cnc3ccc(Cl)cc23)cc1OC
117 to 119	CN(C)CCCc1nc2ccccc2[nH]1
67 to 68	Cc1cc(C)cc(C=CC#N)c1
76 to 78	Cc1cc(-c2nnn(C)n2)cc(C)c1OCCCn1cncn1
130	COc1ccc(CN(C)CCCCCc2ccc(NC(=O)c3cccc4c(=O)c5cccc(F)c5[nH]c34)cc2)cc1OC
210 to 211	Cc1cccc(C(=O)c2[nH]c3cc(Cl)ccc3c2N)n1
207	O=C(O)CCc1cc2cc(Cl)ccc2n1S(=O)(=O)c1ccc2c(c1)OCO2
153 to 154	COc1cc(COc2nn(C)cc2CC(=O)O)ccc1OCc1nc(-c2ccccc2)oc1C
257 to 260	Cc1cc2cc(NC(=O)Nc3ccc(Cl)cc3)ccc2[nH]1
163 to 164	COc1cc(COc2nc(-c3ccccc3)ncc2C(=O)O)ccc1OCc1nc(-c2ccco2)oc1C

melting point [°C]	Compound
240 to 241	COC(=O)c1cc(O)nc2ccccc12
70 to 74	CC(C)NC(=O)OCC(=O)c1ccccc1F
162 to 165	COc1cc2c(cc1OC)[C@@H]1CCCC[C@@H]1N=C2c1ccc([N+](=O)[O-])c([N+](=O)[O-])c1
148	COc1cc(OC)nc(Oc2ccc3ccccc3c2C=NNc2ccccc2)n1
91	CCCCCCCCCCCCOc1ccc(C(=O)Oc2ccc(C(=O)OC3CCC(CCC)(CCC)OC3=O)cc2)cc1 (configuration not stated)
203 to 206	COCCc1nc2c(N)nc3cc(OCc4cccc(N)c4)ccc3c2n1CC(C)(C)O
74 to 77	COCCCCCC(=O)c1ccc(S(C)=O)cc1 (configuration not stated)
> 217	CC(C)(C)NC(=O)N1CCn2c(C#N)c(-c3cccc(F)c3)c(C(N)=O)c2C1
271 to 273	Brc1ccc(-c2nn[nH]n2)cc1
274 to 275	N#Cc1ccc(-c2ccc3c(c2)CCc2nn(-c4ccccn4)c(O)c2-3)cc1
90	CC1(CCN2C(=O)c3cccc([N+](=O)[O-])c3C2=O)OCCO1
90 to 92	NC(=O)C(NCCc1cccs1)c1ccccc1Cl (configuration not stated)
67 to 68	Cc1cc(O)cc(N(C)C)c1
82 to 83	CCOC(=O)CNC(=O)c1cccs1
118 to 120	COc1ccc(S(=O)(=O)Nc2ccc([C@@H](C)C(N)=O)cc2)cc1
215 to 216	CC(C)Cn1c(CNC(=O)C2CC2)nc2c(N)nc3ccccc3c21
94 to 95	COc1ccc(-c2ccc(N)cc2)cc1OC1CCCC1
160 to 161	N#Cc1cccc(-c2ccc(C#N)c(Cn3cncn3)c2)c1
187 to 189	O=C(Nc1cc(-c2nnc(Cc3ccccc3)o2)ccn1)c1ccccc1
221 to 226	Cc1nc(-c2c(Cl)cccc2Cl)n[nH]1
140 to 142	O=C(Nc1cc(Br)cc(C(F)(F)F)c1)Oc1ccc([N+](=O)[O-])cc1
83 to 84	O=C1N[C@H](Cc2ccc(C(F)(F)F)cc2)[C@@H](c2ccc(F)cc2)O1 (racemic)
148 to 149	CN(C(=O)c1ccc2nonc2c1)C1CCCCC1O (configuration not stated)

melting point [°C]	Compound
157 to 160	COc1cc(OC)c(NC(=O)CC(C#N)c2ccccc2)c(OC)c1 (configuration not stated)
148	CCOC(=O)c1[nH]nc(-c2ccc(C#N)cc2)c1C
102 to 104	Fc1cc(Cl)ccc1-n1nc2c(c1Cl)CCC2
155 to 156	CC(=S)NCC1CN(c2ccc(N3CCSCC3)c(F)c2)C(=O)O1 (configuration not stated)
149 to 154	COc1ccc2oc(-c3ccc(O)cc3C)cc2c1
159	Cc1ccc(O)c(Cn2c(NC3CCNC(CCN4CCOCC4)C3)nc3ccc(CCc4ccccc4)cc32)n1 (configuration not stated)
105 to 109	CC(C)CC(C=O)NC(=O)C(Cc1c[nH]cn1)NC(=O)C(CNC(=O)Cc1cccc2ccccc12)Cc1ccccc1 (configuration not stated)
295	Nc1nc2ccccc2c2c1ncn2CCNC(=O)c1ccccc1
224 to 225	CC(C)n1c(C=O)c(-c2ccc(F)cc2)c(-c2ccccc2)c1C(=O)Nc1cccc(S(N)(=O)=O)c1
190 to 191	CC(=O)OC(C)OC1=C(C(=O)Nc2cccc(C)n2)N(C)S(=O)(=O)c2ccccc21 (configuration not stated)
188 to 191	Cc1ccc(Nc2c(N3CCCC3)cc(C(=O)O)cc2S(N)(=O)=O)cc1
168 to 170	CC(C)N(CCC(CCN(C(C)C)C(C)C)(C(N)=O)c1c(Cl)cccc1Cl)C(C)C
47 to 48.5	CC(C)(C)OC(=O)[C@@H]1C[C@H](C(=O)OC(C)(C)C)N1
> 200	CCC(=O)Nc1ccccc1-c1nc2ccccc2[nH]1
168 to 172	COc1ccc(S(=O)(=O)C2(C(=O)NO)CCN(CCOc3ccccc3)CC2)cc1
153 to 155	ClCCOc1ccc(C2=C(c3ccccc3)CCCc3cc(OC4CCCCO4)ccc32)cc1 (configuration not stated)
117 to 120	O=C1NC(=O)c2c1c(-c1ccccc1Cl)cc1c2c(Br)cn1CCCN1CCOCC1
139 to 140	Oc1ccc(C2COc3cc4c(cc3C2)OCO4)cc1 (configuration not stated)
61 to 66	O=C(Nc1ccc(N2CCNCC2)c(C(F)(F)F)c1)c1ccc(F)c(OCc2cccnc2)c1
81 to 85	CCCN(C)C(C)CN1CCc2c(c(=O)oc3cc(OC)c(OC)cc23)C1 (configuration not stated)
80 to 82	Oc1ccc2c(c1)OC1(CCCCCC1)O2
116 to 118	O=C(O)C1(c2cccs2)CC1

Compound	melting point [°C]
CCc1c(C(=O)C(N)=O)c2cc(OCCCC(=O)O)ccc2n1Cc1ccccc1	173 to 175
CNS(=O)(=O)c1ccc2c3c(cc([N+](=O)[O-])c2c1)N(C(=O)c1cc2cc(OCCN(C)C)ccc2[nH]1)CC3CCl (configuration not stated)	> 350
COC1=CC23CCN(C)C(Cc4ccc(OC)c(Oc5ccccc5)c42)C3=CC1C (configuration not stated)	177 to 178
COc1ccc(/C=C/C(=O)N[C@@H]2N=C(c3ccccc3)c3ccccc3N(C)C2=O)cc1	129 to 133
CCOC(=O)[C@H]1CCCN2CCc3c([nH]c4ccc(Cl)cc34)[C@@H]12 (racemic)	88 to 90
COCn1cc2cc(C)c(NC(=O)c3cc(OC)nn3-c3ncccc3Cl)c(C(=O)NC(C)C)c2n1	148

From a melting point compilation (Tetko et al.; mined from patent text by program, amines drawn as free bases though some values may be those of a salt)
